According to patent publication US20250000856A1, “CRYSTALLINE FORMS OF N-((1R,3S)-3-(4-ACETYLPIPERAZIN-1-YL)CYCLOHEXYL)-4-FLUORO-7-METHYL-1H-INDOLE-2-CARBOXAMIDE” (Epizyme, Inc., priority 2021, published 2025):

Assay: Pharmacokinetics of Free Base Forms I and II in male Beagle dogs after a single oral dose; Compound 1 plasma concentrations by LC-MS/MS
Type: in vivo
Experimental: In this study, male Beagle dogs were administered Free Base Form I and Free Base Form II at 25 mg/kg and 100 mg/kg (0.5% carboxymethylcellulose (CMC) and 0.1% Tween in water at pH 7). The dogs were fasted overnight and then offered food one hour prior to oral administration of the form. Blood samples were collected at predetermined timepoints up to 48 hours. Compound 1 plasma concentrations were determined by liquid chromatography with tandem mass spectrometry (LC-MS/MS) methods.

[1] = 25 mg/kg dose, versus Free Base Form I
[2] = 100 mg/kg dose, versus Free Base Form I

## CC(=O)N1CCN([C@H]2CCC[C@@H](NC(=O)c3cc4c(F)ccc(C)c4[nH]3)C2)CC1 [Free Base Form II, N-((1R,3S)-3-(4-acetylpiperazin-1-yl)cyclohexyl)-4-fluoro-7-methyl-1H-indole-2-carboxamide]
[1]
  Compound 1 AUC0-inf greater than that of Free Base Form I: ~20%
  Compound 1 Cmax greater than that of Free Base Form I: ~40%
[2]
  AUC0-inf greater than that of Free Base Form I: 3.1 fold
  Cmax greater than that of Free Base Form I: 1.8 fold
Oral 25 and 100 mg/kg, difference dose-dependent
  exposure in dogs compared with Free Base Form I: unexpectedly greater exposure
